Source: a melting point compilation (Tetko et al.)

SMILES | melting point [°C]
CCOP(=S)(OCC)SCC(=O)NC(C)C | 28.5
O=C1C(Cl)=C(Nc2ccccc2)C(=O)c2ccccc21 | 215
CCOC(=O)c1c(C)sc(Sc2ccccc2[N+](=O)[O-])c1OC(C)=O | 130 to 131
Cc1ccc(C)n1-c1cc(Cl)c([N+](=O)[O-])cc1Cl | 82 to 84
COc1cc2c(cc1OC)Cc1cc(OC)c(OC)cc1Cc1cc(OC)c(OC)cc1C2 | 222 to 228
CSC(=NS(=O)(=O)c1ccc(Br)cc1)SC | 100 to 105
CCOC(=O)c1c(SC)nn(S(=O)(=O)c2ccc(C)cc2)c1N | 151 to 153
CSc1ccc(-n2c(-c3ccccc3)cc(C(=O)O)c2C)cc1 | 202 to 203
ClC(Cl)N(C(Cl)Cl)C(Cl)Cl | 170 to 173
CC(=O)Nc1cc(N)c(C=Cc2ccccc2)cc1/C=C/c1ccccc1 | 218
O=C(O)C=Cc1ccc(-c2ccc(F)cc2F)o1 | 218 to 220
OCc1ccc(-c2cccs2)nc1 | 124 to 125
Cc1nccc(O)c1OCc1ccc(Cl)cc1 | 195 to 199
CCC(=O)Nc1ccc(Cl)c(Cl)c1 | 92
CN(C)c1ccc(C=C2C=C(c3ccccc3)OC(c3ccccc3)=C2)cc1 | 181
Cc1ccc(NC(=S)Nc2ccc(C)cc2)cc1 | 183
ClC(Cl)C(Cl)(Cl)C(Cl)(Cl)Cl | 29.4
Nc1ccc([N+](=O)[O-])c(F)c1 | 160
CC(=O)CCc1oc2ccc([N+](=O)[O-])cc2c1-c1ccc(C)o1 | 124
O=Cc1cccc2cccc(C(=O)O)c12 | 160 to 167

SMILES | melting point [°C]
O=C1NC(=O)C(=Cc2ccccc2)N1 | 222
Brc1ccc(Oc2ccccc2Br)cc1 | < 20
O=C(O)c1cccc2cccc(C(=O)O)c12 | 260
Cc1cc(C)c(CC(O)c2cc3ccccc3o2)c(C)c1 (centres undefined) | 75 to 76
C(=N\c1cc2c(cc1CCc1ccccc1)CC(c1ccccc1)N2)/c1ccccc1 (centres undefined) | 118
Clc1cc2oc3ccc(Cl)c(Cl)c3c2cc1Cl | 210
CN(C)CCN1C(=O)c2ccccc2Nc2cc(Cl)ccc21 | 166
CCCCCCCCCCCCCCCc1cccc(O)c1 | 53.5
Nc1nn2c(C(F)(F)F)cc(-c3cccs3)nc2c1/N=N/c1ccc(F)cc1 | 220
Cc1n[nH]c(SCc2ccc(Cl)cc2)n1 | 151 to 153
Cc1nc(-c2ccccc2)sc1N=C=O | 82 to 83
O=Cc1ccc(-c2cccnc2)cc1 | 55
O=S(=O)(O)c1ccc(O)c2ncccc12 | 322
O=C(C1=NOC2C(=O)N(c3cccc([N+](=O)[O-])c3)C(=O)C12)c1ccccc1 (centres undefined) | 173
O=c1c(C2CC(c3ccc(-c4ccc(Br)cc4)cc3)Cc3ccccc32)c(O)sc2ccccc12 (centres undefined) | 235
Cc1nc2ccccc2c(=O)n1-c1ccccc1Cl | 126
O=S(=O)(Cl)c1ccc2c(c1)OCO2 | 48 to 51
ON(Cc1c(F)cccc1Cl)Cc1c(F)cccc1Cl | 169 to 171
C=CCOC(Cn1ccnc1)c1ccc(Cl)cc1Cl (centres undefined) | 52.7
O=C=Nc1cccc2c(N=C=O)cccc12 | 130

SMILES | melting point [°C]
COc1ccccc1-c1nnc2n1CN(C(C)C)CS2 | 207
O=C(CBr)c1ccc(OC(F)(F)F)cc1 | 55 to 58
O=C(Cl)c1cncc(Br)c1 | 84 to 86
C(#Cc1ccc(C#Cc2ccccc2)cc1)c1ccccc1 | 177
O=C(C=CC(=O)Oc1ccccc1)Oc1ccccc1 | 73
CCCCCCCCCCCCCCC(Br)C(=O)O (centres undefined) | 52 to 56
Brc1cncc(Br)c1 | 112
c1ccc(-c2nnc(NC3=NCCN3CN3CCCCC3)s2)cc1 | 133 to 134
c1ccc(CC2CCCCN2)cc1 (centres undefined) | 32
CCOc1ccc(N=C(CNc2ccc(OCC)cc2)Nc2ccc(OCC)cc2)cc1 | 113
Cc1cc(O)cc(C)c1C | 106
CCOC(=O)Nc1ccc(C)cc1[N+](=O)[O-] | 64 to 65
O=C(Nc1ccccc1Cl)c1ccccc1 | 99
CCCCN(CCO)CCCC | -75
Clc1cccc2c(C#Cc3ccccc3)c3ccccc3c(C#Cc3ccccc3)c12 | 199 to 204
CCOC(CN)OCC | -78
C=CCN(CC=C)C(=O)C(Cl)Cl | 5.5
O=C(Nc1ccc(Br)cc1)c1cc(Br)cc(Br)c1O | 227

Second part, the compound after the results:

melting point [°C] | SMILES
163 | CCCOC(=O)C1=C(C)NC(=O)NC1c1cccc(OC)c1OC (centres undefined)
30 to 34 | CC(C)(C)[C@H](N)CO
175 to 177 | CC(C)(C)OC(=O)N1CCC(Oc2ccc(C(=O)O)cc2)CC1
170 to 175 | CC(C)(C)[C@H]1CC[C@H](C(=O)O)CC1
160 | C=CC1(C)CCC2C(=CCC3C(C)(C(=O)O)CCCC23C)C1 (centres undefined)
-64 | CC(=O)OC(C)CC(C)C (centres undefined)
104 | COc1cc(CCC(=O)O)cc(OC)c1OC
136 | CC(C)NC(=O)C(C(F)(F)F)C(F)(F)F
266 | O=C1CCC2C1C1CCC(=O)C21 (centres undefined)
130 | COc1cc(C(=O)Nc2ccc3nn(C4CCCCC4)nc3c2)cc(OC)c1OC
168 | COC(=O)c1c2c(c(C)c3c1CC3=O)C(=O)C2
131 to 133 | Cc1oc(-c2ccccc2)nc1CC(=O)O
162 | CCOC(=O)N/C=C1/C(=O)C2(C)CCC1C2(C)C (centres undefined)
111 to 113 | CCOC(=O)c1sc(SC)c(S(C)(=O)=O)c1N
111 to 114 | O=C(O)Cc1c(F)ccc(F)c1F
309 | CC(=O)NC1C2CCC(C)(C1NC(C)=O)C2(C)C (centres undefined)

melting point [°C] | SMILES
128 | CC12CCC(C(C(=O)O)C1=O)C2(C)C (centres undefined)
46.3 | c1ccc(C2CCc3ccccc3O2)cc1 (centres undefined)
224 | Cn1[nH]c(N)c2c(=O)c(C(=O)O)cnc1-2
110 | CC(C)(C)C1=NN(c2ccccc2)C(=O)C1
39 | O=C(CC(=O)C(F)(F)F)c1ccccc1
32 | CCCCSC(=Nc1cccnc1)SCc1ccc(C(C)(C)C)cc1
179 to 180 | N#Cc1c(NC(=O)CCl)sc2c1CCCC2
218 to 220 | N[C@H]1CCC[C@H]1C(=O)O (relative stereo)
156 | CC(=O)OCC1(C)CCCC23COC4CC5C(C)C(=O)C6(C(CC12)OC(C)(C)OC56)C43 (centres undefined)
85 to 90 | CCCCCc1ccc(C(=O)O)cc1
300 | NC(=O)c1ccc(C(=O)O)cc1
103 | COc1cc(OC)c(C(C)=O)c(OC)c1
210 | Cc1ccc(C(=O)O)cc1O
154 | CC(C)(C)NCC(O)c1ccc(O)c(CO)c1 (centres undefined)
253 | CC(C(=O)O)C1CCC2C3CCC4CC(=O)CCC4(C)C3CCC12C (centres undefined)
